Reference: patent publication US8637087B2, “Treatment of interstitial cystitis using (6aR, 10aR)-Δ8-tetrahydrocannabinol-11-OIC acids” (JB Therapeutics Inc., priority 2004, dated 2014)

Legend:
[1] = test system: bladder overactivity induced by intravesical administration of acetic acid solution; assay: Cystometrograms, acute bladder irritation by acetic acid infusion, i.v. drug; format: in vivo, rats; conditions: for intercontraction interval (ICI), % of the control value: 0.25% acetic acid infusion, vehicle 42.9%; for pressure threshold (PT), % of the control value: vehicle 87.1%
Description: (§1) Cystometrograms (CMGs) were performed under urethane anesthesia (1 g/kg s.c.) using a catheter inserted into the bladder through the bladder dome via a midline abdominal incision. Saline was infused at a rate of 0.04 ml/min to elicit repetitive bladder contractions. Effects of intravenous (i.v.) injection of Compound 3a on bladder overactivity induced by either intravesical administration of acetic acid solution or one day treatment with cyclophosphamide were investigated. […] Thus, these compounds can be effective for the treatment of pain and urinary frequency symptoms in patients with painful bladder syndrome/interstitial cystitis.
Saline infusion was performed for 1 to 2 hours prior to drug (or vehicle) administration and control CMGs were recorded. Compound 3a (aka CT-3 or IP-751, dissolved in 30% Cremophor EL saline solution; three concentrations of 1, 3, and 10 mg/kg) or vehicle was administrated intravenously when starting infusion of acetic acid solution (0.25%) into the bladder.
Changes in cystometric parameters such as intercontraction intervals (ICIs), maximum voiding pressure (MVP), pressure threshold (PT) and baseline pressure (BP) were evaluated before and after i.v. administration of Compound 3a or vehicle.
In the vehicle group, 0.25% acetic acid infusion induced significant bladder overactivity, as evidenced by a reduction in ICIs to 42.9% of the control value.

[2] = test system: cyclophosphamide-induced bladder overactivity; assay: Cystometrograms, subacute bladder irritation by cyclophosphamide, i.v. drug; format: in vivo, rats
Description: as §1
One day after intraperitoneal injection of cyclophosphamide (CYP, 150 mg/kg), control CMGs were recorded for 1 to 2 hour prior to i.v. administration of Compound 3a or vehicle. See, example i, above. Following administration of Compound 3a, changes in cystometric parameters such as ICIs, MVP, PT and BP were recorded to evaluate the effects of Compound 3a on cyclophosphamide-induced bladder overactivity.
Bladder overactivity indicated by significant ICI reductions was observed one day after CYP injection.

[3] = test system: bladder hyperactivity induced by infusing acetic acid; assay: Instillation of liposomal drug 24 h / 48 h before acetic acid-induced bladder hyperactivity (CMG); format: in vivo, rats; conditions: intravesical, two subjects per group
Description: Similarly, instillation of liposomal-Compound 3a was first conducted. Then, 24 hours and 48 hours after instillation, under urethane anesthesia, bladder hyperactivity was induced by infusing acetic acid at the concentration of 0.125% and 025%. Prior to acetic acid infusion, baseline CMG was conducted by saline infusion (0.04 ml/min) to measure intercontraction interval (ICI). A percentage reduction in ICI was measured following acetic acid infusion as an indicator of bladder irritation.
(§2) See, FIGS. 9B and 9C, respectively. Each group consisted of a minimum of seven subjects, except for those of a preliminary dose response study, where two subjects were used in each group. The preliminary dose response study indicated an optimal Compound 3a dose of 0.8 mg/ml. See, FIG. 9A. In these experiments, 1.6 mg/ml was highest concentration of Compound 3a encapsulated into liposomes; higher concentrations apparently compromised formulation stability.

[4] = Encapsulation into liposomes / formulation stability; format: physicochemical
Description: as §2

[5] = 10 mg/kg, worded as 'expected to increase'
[6] = CYP-treated rats, after administration

| SMILES | intercontraction interval (ICI), % of the control value ([1]; 1 mg/kg i.v.) | pressure threshold (PT), % of the control value ([1]; 1 mg/kg i.v.) | intercontraction interval (ICI), % of the control value ([1]; 3 mg/kg i.v.) | pressure threshold (PT), % of the control value ([1]; 3 mg/kg i.v.) | intercontraction interval (ICI), % of the control value ([1]; 10 mg/kg i.v., P<0.05, n=6) | acetic acid-induced bladder overactivity ([1]; 10 mg/kg i.v., without affecting bladder contractions during voiding) | pressure threshold (PT), % of the control value [1, 5] | baseline pressure (BP), change ([1]; i.v., acetic acid infusion) | maximum voiding pressure (MVP), change ([1]; i.v., acetic acid infusion) | CYP-induced bladder overactivity ([2]; 10 mg/kg i.v., CYP-treated rats) | intercontraction interval (ICI) after drug ([2]; 10 mg/kg i.v., one day after CYP 150 mg/kg i.p., control value 3.65 min, vehicle 3.89 vs. 3.94 min) | baseline pressure (BP), change [2, 6] | maximum voiding pressure (MVP), change [2, 6] | pressure threshold (PT), change [2, 6] | optimal dose in preliminary dose response study [3] | highest concentration encapsulated into liposomes (higher concentrations compromised formulation stability) [4] |
| --- | --- | --- | --- | --- | --- | --- | --- | --- | --- | --- | --- | --- | --- | --- | --- | --- |
| CCCCCCC(C)(C)c1cc(O)c2c(c1)OC(C)(C)[C@@H]1CC=C(C(=O)O)CC21 (stereo partly drawn) [Compound 3a, (6aR,10aR)-Δ^8-THC-DMH-11-oic Acid] | 45.2 % of the control value | 74.1 % of the control value | 51.1 % of the control value | 94.1 % of the control value | 112.4 % of the control value | significantly suppressed | 127.2 % of the control value | No significant changes | No significant changes | significantly suppressed | 5.14 min | No significant changes | No significant changes | No significant changes | 0.8 mg/mL | 1.6 mg/mL |
| CCCCCCC(C)(C)c1cc(OC(C)=O)c2c(c1)OC(C)(C)[C@@H]1CC=C(C(=O)O)C[C@@H]21 [Compound 3c, (6aR,10aR)-Δ^8-THC-DMH-11-oic Acid Acetate] | – | – | – | – | – | – | 127.2 % of the control value | – | – | – | – | – | – | – | – | – |
